Reference: publication PMC10150354, “Linearization of the Brevicidine and Laterocidine Lipopeptides Yields Analogues That Retain Full Antibacterial Activity” (Journal of Medicinal Chemistry, 2023)
Converted amounts (≈) assume the structure as drawn. Where a SMILES comes first, the peptide text is derived from it. [ ]: non-standard residue; d: D form. The star is where a group is joined. ξ: configuration not given here. Octanoyl(7-Me) = CC(C)CCCCCC(=O)*; Hexanoyl(4ξ-Me) = CCC(C)CCC(=O)*; dOrn = NCCC[C@@H](N)C(=O)O; Orn = NCCC[C@H](N)C(=O)O; Dap = NC[C@H](N)C(=O)O; Alloc = C=CCOC(=O)*

How the values were obtained:
[1] = tested on: panel of Gram-negative and Gram-positive ESKAPE pathogens; type: cell-based; conditions: for fold improvement in activity with respect to C-terminal acids 4 and 5: MIC of C-terminal amide vs C-terminal acid; for fold reduction in activity compared to parent peptides: MIC vs brevicidine / laterocidine; for MIC values, summarised over strains: against most strains of the panel
Experimental: Linear laterocidine (LL-OH, 4) and linear brevicidine (LB-OH, 5) were first synthesized by Fmoc SPPS, starting from 2-chlorotrityl (2-CT) chloride resin. The antibacterial activity of these peptides was then compared to brevicidine (1) and laterocidine (2) using minimum inhibitory concentration (MIC)/microbroth dilution assays (Table 1). The MICs of all peptides were determined against a panel of Gram-negative and Gram-positive ESKAPE pathogens. Additionally, a strain of E. coli carrying the mcr-1 gene was included in the panel. The mcr-1 gene is a transferrable plasmid that confers resistance against colistin, a last-resort antibiotic for Gram-negative infections, by reducing the overall negative charge of lipopolysaccharide (LPS) through modification of lipid A with phosphoethanolamine. The propensity for cationic antibiotics to bind to the cell membrane is therefore reduced. This gene has been observed in more than 27 bacterial species over six continents.[26] The spread of the mcr-1 gene could render colistin ineffectual; therefore, novel antibacterials are urgently required to overcome this form of resistance.
All minimum inhibitory concentrations (MICs) were determined according to Clinical and Laboratory Standards Institute (CLSI) guidelines. Blood agar plates were inoculated with glycerol stocks of E. coli ATCC 25922, K. pneumoniae ATCC 13883, A. baumannii ATCC 17961, P. aeruginosa PAO1, and S. aureus USA300. The inoculated agar plates were then incubated for 16 h at 37 °C. Individually grown colonies were subsequently used to inoculate 5 mL aliquots of TSB that were then incubated at 37 °C with shaking at 220 rpm. E. coli 25922 MCR-1 glycerol stock was used to inoculate 5 mL of TSB supplemented with kanamycin that was then incubated for 16 h at 37 °C with shaking at 220 rpm. The next day the culture was diluted 100-fold in TSB supplemented with kanamycin and incubated at 37 °C with shaking at 220 rpm. In parallel, the lipopeptide antibiotics DMSO stocks to be assessed were serially diluted with MHB in polypropylene 96-well plates (50 μL in each well). Colistin sulfate stocks were dissolved in water before being diluted with MHB. Aliquots of the inoculated TSB were incubated until an OD600 of around 0.5 was reached. The bacterial suspensions were then diluted with MHB (2 × 10^5 CFU/mL) and added to the microplates containing the test compounds (50 μL to each well). The well plates were sealed with an adhesive membrane and after 18 h of incubation at 37 °C with shaking at 600 rpm, the wells were visually inspected for bacterial growth. MIC values reported are based on three technical replicates and defined as the lowest concentration of the compound that prevented visible growth of bacteria.

A. baumannii ATCC 17961 = type: cell-based, Acinetobacter baumannii; conditions: microbroth dilution per CLSI, MHB, 18 h at 37 °C, visual inspection, three technical replicates
Outline: (§1)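 MIC taken as the lowest concentration with no visible growth after 18 h, 37 °C, shaking, three technical replicates. Peptides were serially diluted in MHB and received cells from TSB cultures at OD600 ~0.5, diluted to 2 × 10^5 CFU/mL (kanamycin selection for the mcr-1 E. coli), following CLSI guidelines.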

S. aureus USA300 = type: cell-based, Staphylococcus aureus; conditions: microbroth dilution per CLSI, MHB, 18 h at 37 °C, visual inspection, three technical replicates
Outline: as §1

K. pneumoniae ATCC 13883 = type: cell-based, Klebsiella pneumoniae; conditions: microbroth dilution per CLSI, MHB, 18 h at 37 °C, visual inspection, three technical replicates
Outline: as §1

E. coli ATCC 25922 = type: cell-based, Escherichia coli; conditions: for Antibacterial activity (MIC) E. coli ATCC 25922: microbroth dilution per CLSI, MHB, 18 h at 37 °C, visual inspection, three technical replicates; for MIC (µg/mL) against E. coli (ATCC 25922): (Supplement 2)
Outline: as §1

E. coli (MCR-1) = type: cell-based, Escherichia coli; conditions: microbroth dilution per CLSI, MHB, 18 h at 37 °C, visual inspection, three technical replicates, E. coli 25922 carrying mcr-1
Outline: as §1

P. aeruginosa PAO1 = type: cell-based, Pseudomonas aeruginosa; conditions: microbroth dilution per CLSI, MHB, 18 h at 37 °C, visual inspection, three technical replicates
Outline: as §1

| Structure (SMILES) | fold improvement in activity with respect to C-terminal acids 4 and 5 [1] [fold] | fold reduction in activity compared to parent peptides [1] | Antibacterial activity (MIC) A. baumannii ATCC 17961 (A. baumannii ATCC 17961) [µg/mL] | Antibacterial activity (MIC) S. aureus USA300 (S. aureus USA300) [µg/mL] | Antibacterial activity (MIC) K. pneumoniae ATCC 13883 (K. pneumoniae ATCC 13883) [µg/mL] | Antibacterial activity (MIC) E. coli ATCC 25922 (E. coli ATCC 25922) [µg/mL] | Antibacterial activity (MIC) E. coli (MCR-1) (E. coli (MCR-1)) [µg/mL] | Antibacterial activity (MIC) P. aeruginosa PAO1 (P. aeruginosa PAO1) [µg/mL] | MIC values, summarised over strains [1] [µg/mL] | MIC (µg/mL) against E. coli (ATCC 25922) (E. coli ATCC 25922) [µg/mL] |
| --- | --- | --- | --- | --- | --- | --- | --- | --- | --- | --- |
| CCC(C)CCC(=O)N[C@H](CC(N)=O)C(=O)N[C@H](Cc1ccc(O)cc1)C(=O)N[C@H](Cc1c[nH]c2ccccc12)C(=O)N[C@H](CCCN)C(=O)N[C@@H](CCCN)C(=O)NCC(=O)N[C@H](CCCN)C(=O)N[C@@H](Cc1c[nH]c2ccccc12)C(=O)N[C@H](C(=O)N[C@H](C(=O)NCC(=O)N[C@@H](CO)C(N)=O)[C@@H](C)CC)[C@@H](C)O (some centres unmarked) [LB-NH2 (7)] ({Hexanoyl(4ξ-Me)}-[dN][dY][dW][dOrn][Orn]G[dOrn]WTIGS-NH2) | 2 | 2/4 | 16 | >32 | 16 | 16 | 16 | 4 | – | – |
| CC[C@H](C)[C@H](NC(=O)[C@@H](NC(=O)[C@H](Cc1c[nH]c2ccccc12)NC(=O)[C@@H](CCCN)NC(=O)CNC(=O)[C@H](CCCN)NC(=O)[C@@H](CCCN)NC(=O)[C@@H](Cc1c[nH]c2ccccc12)NC(=O)[C@@H](Cc1ccc(O)cc1)NC(=O)[C@@H](CO)NC(=O)CCCCCC(C)C)[C@@H](C)O)C(=O)N[C@@H](CC(N)=O)C(=O)NCC(=O)NCC(N)=O [LL-NH2 (6)] ({Octanoyl(7-Me)}-[dS][dY][dW][dOrn][Orn]G[dOrn]WTINGG-NH2) | 2 | 2/4 | 8 | >32 | 4 to 8 | 4 | 8 | 4 | – | – |
| C=CCOC(=O)NC[C@H](NC(=O)[C@H](Cc1c[nH]c2ccccc12)NC(=O)[C@@H](CCCN)NC(=O)CNC(=O)[C@H](CCCN)NC(=O)[C@@H](CCCN)NC(=O)[C@@H](Cc1c[nH]c2ccccc12)NC(=O)[C@@H](Cc1ccc(O)cc1)NC(=O)[C@@H](CC(N)=O)NC(=O)CCC(C)CC)C(=O)N[C@H](C(=O)NCC(N)=O)[C@@H](C)CC (some centres unmarked) [Δ12LB (Dap[Alloc]9)-NH2 (61)] ({Hexanoyl(4ξ-Me)}-[dN][dY][dW][dOrn][Orn]G[dOrn]W[Dap](Alloc)IG-NH2) | – | – | 2 | >32 | 2 | 4 | 4 | 4 | 2 to 4 | 4 (≈ 2.63 µM) |
| CCC(C)CCC(=O)N[C@H](CC(N)=O)C(=O)N[C@H](Cc1ccc(O)cc1)C(=O)N[C@H](Cc1c[nH]c2ccccc12)C(=O)N[C@H](CCCN)C(=O)N[C@@H](CCCN)C(=O)NCC(=O)N[C@H](CCCN)C(=O)N[C@@H](Cc1c[nH]c2ccccc12)C(=O)N[C@@H](Cc1ccccc1)C(=O)N[C@H](C(=O)NCC(N)=O)[C@@H](C)CC (some centres unmarked) [Δ12LB (Phe9)-NH2 (54)] ({Hexanoyl(4ξ-Me)}-[dN][dY][dW][dOrn][Orn]G[dOrn]WFIG-NH2) | – | – | 4 | >32 | 2 to 4 | 2 | 2 to 4 | 4 | 2 to 4 | 4 (≈ 2.67 µM) |
